The subject of data set [1] is CB1R expression in liver explants of ob/ob mice. As to the kind of experiment: Liver explant culture, CB1R gene expression (RT-PCR). The data set is classed as cell-based, mouse. The settings on record: liver explants of ob/ob mice treated 21 h, FIG. 1. Here is the method:
The liver of the mice was perfused in situ, under sodium pentobarbital anaesthesia (50 mg/kg), with Hank's medium (pH 7.4) saturated with oxygen. Next, the liver was sectioned using a Brendel/Vitron slicer (Tucson, Ariz., USA) in the same medium. The liver sections (about 200 μm) were then incubated 21 h in William's medium E (WME) oxygenated and supplemented with deactivated foetal calf serum (10%) and antibiotic/antifungal cocktail (1%) under controlled atmosphere (5% CO2), to which is added either the antagonist to be tested or vehicle.
Total messenger RNA (mRNA) extraction was carried out with Tri Reagent (Euromedex, France) and consecutive synthesis of complementary DNA (cDNA) was carried out from 1 μg of mRNA with the Bio-Rad iScripttm Reverse Transcription super mix kit (Bio-Rad, France).
Gene expression was evaluated by semi-quantitative real-time reverse transcription-polymerase chain reaction (RT-PCR). The primers used were designed using the Primer3Plus software (http://www.bioinformatics.nl/cgi-bin/primer3plus/primer3plus.cgi) and were synthesized by MWG-Biotech (TATA box-binding protein: Sense […], antisense […]; CB1R: Sense […], antisense aaccccacccagtttgaac). Semi-quantification of gene expression was obtained by taking into account the efficacy of each PCR and after standardization with the reporter gene, TATA box-binding protein.

A further data set addresses T1, CB1R (pcDNA3.1-mCB1) (Mus musculus, UniProt P47746).
T1 construct: expressed in transfected cells; host or cells: HEK293T/17 (ATCC), transient transfection with FuGENE HD
As to the kind of experiment: GloSensor cAMP assay in CB1R-transfected HEK293T/17 cells. The data set is classed as cell-based. The settings on record: for cAMP concentrations in the absence of agonist (AEA): HEK293T/17 cells transfected with mCB1, forskolin 1 μM, FIG. 2. As for the experimental part: HEK293T/17 (ATCC) cells were cultured in DMEM 10% FCS, then seeded at 30000 cells/well in 96-well plates. After 24 h, the cells were subjected to transient transfection by FuGENE HD (Promega) by pcDNA3.1-mCB1 (50 ng) and pGlo (100 ng) plasmids with or without pertussis toxin (PTX). For the control assays, the cells were transfected with empty pcDNA3 (EV) and pGlo vectors with or without PTX. At 48 h (24 h post-transfection), the cells were loaded for 2 h with 2% GloReagent in CO2-independent medium with 10% FCS (80 μL/well).
The cells were then treated by adding, at t=0, 10 μL/well of Forskolin (FSK) 1 μM final, in order to increase the basal cAMP concentration. The kinetics of appearance of cAMP was monitored for 10 minutes. At t=10, the molecules to be tested were added and the cAMP variations measured for 20 minutes. The light signal was measured in RLU and is expressed as % response relative to the signal read at t=10 min (FSK1 μM). Sigmoidal curves were obtained by measurement at t=10 min after addition of the molecule to be tested (thus t=20 min total) of the percentage of light signal as a function of molecule concentration. The 4PL regression was carried out using the Sigma Plot software and made it possible to obtain an EC50 (1 experiment, n=3).
For orientation: Cyclic AMP is a second messenger, typically raised through Gs and lowered through Gi signalling.

The test system of the next data set is C57BL/6 mice. As to the kind of experiment: Gastrointestinal transit (charcoal), anandamide-induced inhibition. Format: in vivo, mouse. The settings on record: agonist alone, 10 mg/kg i.p. Here is the method: Transit through the stomach and the intestine was measured via oral administration of vegetable charcoal suspended in gum arabic used herein as nonabsorbable marker. Briefly, following a short fast, C57BL/6 mice were injected intraperitoneally (i.p.) with anandamide (10 mg/kg) in the presence or absence of the molecule of interest JM-00.266 (i.e., compound IA) (10 mg/kg) before oral charcoal administration. 25 minutes later, the animals were sacrificed by cervical dislocation in order to entirely remove the intestine. The distance between the beginning of the pylorus and the location of the charcoal bolus was measured.

The next data set relates to wild-type C57BL/6 mice. As to the kind of experiment: Acute oral glucose tolerance test (OGTT) in wild-type mice. Format: in vivo, mouse. The settings on record: 10 mg/kg i.p. 10 min before 2 g/kg oral glucose load, wild-type C57Bl/6J mice. Here is the method:
(§1) In order to evaluate the short-term effects of the rimonabant-like molecules, as well as their selectivity for CB1R, wild-type C57BL/6 mice and CB1R −/− mice underwent an oral glucose tolerance test (OGTT at 2 g/kg) 10 min after i.p. injection of vehicle or of JM-02.003 or JM-00.266 (i.e., compound IA) (10 mg/kg). Blood glucose was measured at times t=0, t=15 min, t=30 min, t=45 min, t=60 min, t=90 min, and t=120 min post-oral. glucose administration using a Contour®TS blood glucose monitor (ref. 81574201, Bayer HealthCare) and reactive strips (ref. 81574274, Bayer HealthCare).

The subject of the next data set is CB1R -/- mice. As to the kind of experiment: Acute oral glucose tolerance test (OGTT) in CB1R KO mice. To be noted: 10 mg/kg i.p., OGTT 2 g/kg. Format: in vivo, mouse. Here is the method:
as §1

Data set [2] has as its system obese C57BL/6 mice. As to the kind of experiment: Open-field test after 30-day chronic treatment. Format: in vivo, mouse. The settings on record: end of 30-day treatment, 10 mg/kg i.p. Here is the method:
Locomotor activity of the mice was measured at the conclusion of the chronic treatment with rimonabant or molecule JM-00.266 (i.e., compound IA) by an infrared monitoring system. To that end, the animals were placed individually in 43×43 cm plexiglass boxes (MED associates) for 20 min. Two series of 16 pulsed infrared beams were spaced 2.5 cm apart on opposite walls to record ambulatory X-Y movements at 100 ms resolution. The centre was defined as a central 32×32 cm square. In addition to locomotor activity information, this test makes it possible to predict anxiolytic activity in response to novelty or to an anxiogenic environment. The variables measured in the open field are total ambulatory activity (in cm), the number of entries and the time spent in the central area as well as the distance traversed in the centre divided by the total distance traversed.

The test system of data set [3] is obese C57BL/6 mice. Kind of data set: Plasma liver markers after 30-day chronic treatment. Format: in vivo, mouse. The text has this:
(§2) In order to determine the long-term effects of the molecules of interest, C57BL/6 mice made obese by means of a high-sucrose, high-fat diet (HSHF: 30% crude fat, 33.5% carbohydrates; ref. E15126-34; ref. E15126-34, SSNIFF, Soest, Germany) for 20 weeks. These mice then received daily an i.p. injection of rimonabant, JM-00.266 (i.e., compound IA) or vehicle for a period of 30 days. In parallel, weight and food intake were monitored every two days following the beginning of the treatment.
Total cholesterol, triglycerides and hepatic markers were assayed by a Dimension Vista Intelligent Lab System (Siemens, Saint-Denis, France) using suitable reagents.

For data set [4], the system named is obese C57BL/6 mice. As to the kind of experiment: ITT before and after 30-day chronic treatment. The settings on record: obese mice after 30 days of treatment, 10 mg/kg. Format: in vivo, mouse. Here is the method: (§3) In order to evaluate the long-term effects of the treatment on blood glucose control, glucose tolerance (OGTT) and insulin sensitivity (ITT) were evaluated pre- and post-treatment. Thus, for the OGTT the mice were force-fed glucose (2 g/kg), and for the ITT the mice received an i.p. injection of insulin (0.5 IU/kg). In both cases, blood glucose was measured at times t=0, t=15 min, t=30 min, t=45 min, t=60 min, t=90 min, and t=120 min post-glucose ingestion using a Contour®TS blood glucose monitor (ref. 81574201, Bayer HealthCare) and reactive strips (ref. 81574274, Bayer HealthCare).

In data set [5] the test system is obese C57BL/6 mice. As to the kind of experiment: OGTT before and after 30-day chronic treatment. The data set is classed as in vivo, mouse. The settings on record: obese mice after 30 days of treatment, 10 mg/kg. Here is the method:
as §3

Data set [6] deals with obese C57BL/6 mice. Kind of data set: Food intake, body weight and body composition (EchoMRI) during 30-day chronic treatment. The data set is classed as in vivo, mouse.
Excerpt: as §2
The long-term effect of the treatment on body composition was measured using an EchoMRI™ scanner allowing non-invasive analysis of fat mass, lean mass and body fluid composition by nuclear magnetic resonance (NMR) on the live animal without anaesthesia.

Data set [7] relates to CB1R expression in liver explants of ob/ob mice. To be noted: previous study (Jourdan et al. 2012); cited from earlier work.
[8] abbreviates: obese mice, 10 mg/kg i.p. daily, 30 days.

A value given as a limit tells only on which side of the number the result lay.

Results on six compounds are retold here after patent publication US10457665B2, “1,4-di-(4-methylthiophenyl)-3-phtaloylazetidine-2-one and the derivatives thereof” (Universite De Nantes, priority 2015, dated 2019).

T1 sequence (P47746 whole entry): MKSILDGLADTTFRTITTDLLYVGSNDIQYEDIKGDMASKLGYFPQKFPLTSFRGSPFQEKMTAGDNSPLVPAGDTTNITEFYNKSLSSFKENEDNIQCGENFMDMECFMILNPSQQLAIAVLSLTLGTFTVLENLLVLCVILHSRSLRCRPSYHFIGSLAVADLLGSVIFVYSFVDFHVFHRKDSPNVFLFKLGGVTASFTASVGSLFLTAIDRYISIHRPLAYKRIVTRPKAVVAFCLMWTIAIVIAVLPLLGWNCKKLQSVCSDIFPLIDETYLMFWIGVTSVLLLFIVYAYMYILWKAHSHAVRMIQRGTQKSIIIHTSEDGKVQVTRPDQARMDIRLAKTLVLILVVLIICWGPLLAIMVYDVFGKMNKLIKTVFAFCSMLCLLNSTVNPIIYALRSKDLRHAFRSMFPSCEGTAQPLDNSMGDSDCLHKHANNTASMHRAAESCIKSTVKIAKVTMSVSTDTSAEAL

Take `O=C1C(N2C(=O)c3ccccc3C2=O)C(c2ccncc2)N1Cc1cccc(Cl)c1` (stereo not drawn) [JM-01.1006]: the “hepatic CB1R expression” value in data set [1] was “significant decrease”. Moreover, the “cAMP concentrations in the absence of agonist (AEA)” value on CB1R (pcDNA3.1-mCB1) is “no effect”.

For the compound `CCCCC/C=C\C/C=C\C/C=C\C/C=C\CCCC(=O)NCCO` [AEA, reference compound], the gastrointestinal transit result in the data set on C57BL/6 mice is “strongly inhibited”. Further, the “intracellular cAMP concentration on activation of the receptors by agonist” value on CB1R (pcDNA3.1-mCB1) (data not shown) was “reduction”.

Regarding `COc1cc(OC)cc(N2C(=O)C(N3C(=O)c4ccccc4C3=O)C2c2ccncc2)c1` (stereo not drawn) [JM-02.003], the “glucose tolerance compared with vehicle” value in the data set with wild-type C57BL/6 mice is “improves glucose tolerance”. In addition, the “hepatic CB1R expression” value in [1] was “significant decrease”. In addition, in the data set on CB1R -/- mice, the “improvement in glucose tolerance in CB1R KO mice” value is on record as “persists”. Moreover, the “cAMP concentrations in the absence of agonist (AEA)” value at CB1R (pcDNA3.1-mCB1) is on record as “increased”.

For `CSc1ccc(C2C(N3C(=O)c4ccccc4C3=O)C(=O)N2c2ccccc2)cc1` (stereo not drawn) [JM-00.242], the “hepatic CB1R expression” value in data set [1] is listed as “not selected for the remainder of the study”.

In the case of `Cc1c(C(=O)NN2CCCCC2)nn(-c2ccc(Cl)cc2Cl)c1-c1ccc(Cl)cc1` [SR141716, reference compound], in the data set on obese C57BL/6 mice [2], the motor activity entry was “increases motor activity” and the “time spent in the centre of the arena / anxiety state” value is “not altered”. In the data set with obese C57BL/6 mice [3] (30-day chronic treatment), the “ALT and AST concentrations in plasma of obese mice versus control” value was “significantly decreased”; the “liver damage markers compared with the control” value is given as “does not cause an increase”. In addition, in the data set with obese C57BL/6 mice [3] (setting [8]), the ALPI plasma concentration came to 37.4 ± 2.4, the ALT plasma concentration was determined as 21.6 ± 2.3 U/L, the AST plasma concentration came to 46.4 ± 3.1 U/L and the “Gamma GT plasma concentration” value is less than 3 U/L. Further, in the data set with obese C57BL/6 mice [3] (setting [8]), the “Total bilirubin plasma concentration” value is less than 2 µmol/L. For the same compound, in the data set with obese C57BL/6 mice [4], the “insulin resistance (ITT)” value was “improved”. In the data set with obese C57BL/6 mice [5], the basal blood glucose entry is “significant improvement” and the “glucose tolerance (OGTT 2 g/kg)” value is on record as “significant improvement”. Besides, in the data set on obese C57BL/6 mice [6] (end of 30-day treatment, NMR), the “fat mass versus control mice” value is listed as “lower fat mass” and the “lean mass versus control mice” value is recorded as “higher lean mass”. Besides, in the data set on obese C57BL/6 mice [6] (setting [8]), the “body weight relative to control mice” value is reported as “lost weight” and the “food intake compared with control mice” value is listed as “transiently decrease their food intake”. In data set [7], the “CB1R expression in liver explants” value was “reduced”.

Take `CSc1ccc(C2C(N3C(=O)c4ccccc4C3=O)C(=O)N2c2ccc(Cl)cc2)cc1` (stereo not drawn) [JM-00.246]: the “hepatic CB1R expression” value in data set [1] is given as “not selected for the remainder of the study”.
